Experiments:
Assay in all cases: Post-emergence greenhouse pot test, herbicide alone and with safener
Type in all cases: in vivo
Alopecurus myosuroides = conditions: 10 days after application
Description: (§1) The test plants are grown in pots under greenhouse conditions until a post-application stage. A standard soil is used as the cultivation substrate. At a post-emergence stage, the herbicides, both alone and in admixture with safeners, are applied to the test plants or to cultivated plants of which the seeds were dressed with safeners. Application is carried out using an emulsion prepared from a 25% emulsifiable concentrate (Example F1, b)) of the test substances using 500 l of water/ha. The rates of application are matched to the optimum dosages determined under field or greenhouse conditions. Evaluation of the tests is carried out after 9, 10, 20 and 24 days (100% action=complete destruction; 0% action=no phytotoxic action).

winter barley = conditions: 10 days after application
Description: as §1

winter wheat = conditions: 10 days after application
Description: as §1

summer wheat = tested on: summer wheat
Description: as §1

hard wheat = tested on: hard wheat
Description: as §1

Lolium rigidum = tested on: Lolium rigidum
Description: as §1

Agrostis spica-venti = conditions: 10 days after application
Description: as §1

[1] = 9 days after application, herbicide alone 60 g a.i./ha
[2] = 9 days after application, herbicide alone 125 g a.i./ha
[3] = 9 days after application, herbicide alone 250 g a.i./ha
[4] = 20 days after application, herbicide alone 60 g a.i./ha
[5] = 20 days after application, herbicide alone 125 g a.i./ha
[6] = 20 days after application, herbicide alone 250 g a.i./ha

Compound: CCc1cc(C)cc(CC)c1C1C(=O)N2CCOCCN2C1=O [herbicide no. I1, 8-(2,6-diethyl-4-methylphenyl)tetrahydropyrazolo[1,2-d][1,4,5]-oxadiazepine-7,9-dione]
- action (100% = complete destruction; 0% = no phytotoxic action) (Alopecurus myosuroides; herbicide alone 15 g a.i./ha): 50%
- action (100% = complete destruction; 0% = no phytotoxic action) (Alopecurus myosuroides; herbicide alone 30 g a.i./ha): 80%
- action (100% = complete destruction; 0% = no phytotoxic action) (Alopecurus myosuroides; herbicide alone 60 g a.i./ha): 80%
- action (100% = complete destruction; 0% = no phytotoxic action) (Alopecurus myosuroides; herbicide alone 125 g a.i./ha): 90%
- action (100% = complete destruction; 0% = no phytotoxic action) (winter barley; herbicide alone 15 g a.i./ha): 0%
- action (100% = complete destruction; 0% = no phytotoxic action) (winter barley; herbicide alone 30 g a.i./ha): 0%
- action (100% = complete destruction; 0% = no phytotoxic action) (winter barley; herbicide alone 60 g a.i./ha): 0%
- action (100% = complete destruction; 0% = no phytotoxic action) (winter barley; herbicide alone 125 g a.i./ha): 0%
- action (100% = complete destruction; 0% = no phytotoxic action) (winter wheat; herbicide alone 15 g a.i./ha): 0%
- action (100% = complete destruction; 0% = no phytotoxic action) (winter wheat; herbicide alone 30 g a.i./ha): 5%
- action (100% = complete destruction; 0% = no phytotoxic action) (winter wheat; herbicide alone 60 g a.i./ha): 10%
- action (100% = complete destruction; 0% = no phytotoxic action) (winter wheat; herbicide alone 125 g a.i./ha): 20%
- action (100% = complete destruction; 0% = no phytotoxic action) (summer wheat; [1]): 60%
- action (100% = complete destruction; 0% = no phytotoxic action) (summer wheat; [2]): 60%
- action (100% = complete destruction; 0% = no phytotoxic action) (summer wheat; [3]): 60%
- action (100% = complete destruction; 0% = no phytotoxic action) (summer wheat; [4]): 20%
- action (100% = complete destruction; 0% = no phytotoxic action) (summer wheat; [5]): 40%
- action (100% = complete destruction; 0% = no phytotoxic action) (summer wheat; [6]): 50%
- action (100% = complete destruction; 0% = no phytotoxic action) (hard wheat; [1]): 55%
- action (100% = complete destruction; 0% = no phytotoxic action) (hard wheat; [2]): 60%
- action (100% = complete destruction; 0% = no phytotoxic action) (hard wheat; [3]): 60%
- action (100% = complete destruction; 0% = no phytotoxic action) (hard wheat; [4]): 20%
- action (100% = complete destruction; 0% = no phytotoxic action) (hard wheat; [5]): 30%
- action (100% = complete destruction; 0% = no phytotoxic action) (hard wheat; [6]): 45%
- action (100% = complete destruction; 0% = no phytotoxic action) (Lolium rigidum; 10 days after application, herbicide alone 15 g a.i./ha): 60%
- action (100% = complete destruction; 0% = no phytotoxic action) (Lolium rigidum; 10 days after application, herbicide alone 30 g a.i./ha): 60%
- action (100% = complete destruction; 0% = no phytotoxic action) (Lolium rigidum; 10 days after application, herbicide alone 60 g a.i./ha): 60%
- action (100% = complete destruction; 0% = no phytotoxic action) (Lolium rigidum; 10 days after application, herbicide alone 125 g a.i./ha): 80%
- action (100% = complete destruction; 0% = no phytotoxic action) (Lolium rigidum; [4]): 95%
- action (100% = complete destruction; 0% = no phytotoxic action) (Lolium rigidum; [5]): 100%
- action (100% = complete destruction; 0% = no phytotoxic action) (Lolium rigidum; [6]): 100%
- action (100% = complete destruction; 0% = no phytotoxic action) (Agrostis spica-venti; herbicide alone 15 g a.i./ha): 70%
- action (100% = complete destruction; 0% = no phytotoxic action) (Agrostis spica-venti; herbicide alone 30 g a.i./ha): 70%
- action (100% = complete destruction; 0% = no phytotoxic action) (Agrostis spica-venti; herbicide alone 60 g a.i./ha): 80%
- action (100% = complete destruction; 0% = no phytotoxic action) (Agrostis spica-venti; herbicide alone 125 g a.i./ha): 80%
